Columns and labels:
[1] = target: Calcium-dependent protein kinase 1 (Plasmodium falciparum) (UniProt P62344); conditions: Compound concentration 1000.0 nM
[2] = target: Cyclin-dependent kinase 8 (Homo sapiens) (UniProt P49336); conditions: Compound concentration 1000.0 nM
[3] = target: Serine/threonine-protein kinase 35 (Homo sapiens) (UniProt Q8TDR2); conditions: Compound concentration 1000.0 nM
[4] = target: Serine/threonine-protein kinase LATS2 (Homo sapiens) (UniProt Q9NRM7); conditions: Compound concentration 1000.0 nM
[5] = target: Calcium/calmodulin-dependent protein kinase type II subunit gamma (Homo sapiens) (UniProt Q13555); conditions: Compound concentration 1000.0 nM
Calcium/calmodulin-dependent protein kinase type II subunit gamma (Homo sapiens), sequence (Q13555 whole entry): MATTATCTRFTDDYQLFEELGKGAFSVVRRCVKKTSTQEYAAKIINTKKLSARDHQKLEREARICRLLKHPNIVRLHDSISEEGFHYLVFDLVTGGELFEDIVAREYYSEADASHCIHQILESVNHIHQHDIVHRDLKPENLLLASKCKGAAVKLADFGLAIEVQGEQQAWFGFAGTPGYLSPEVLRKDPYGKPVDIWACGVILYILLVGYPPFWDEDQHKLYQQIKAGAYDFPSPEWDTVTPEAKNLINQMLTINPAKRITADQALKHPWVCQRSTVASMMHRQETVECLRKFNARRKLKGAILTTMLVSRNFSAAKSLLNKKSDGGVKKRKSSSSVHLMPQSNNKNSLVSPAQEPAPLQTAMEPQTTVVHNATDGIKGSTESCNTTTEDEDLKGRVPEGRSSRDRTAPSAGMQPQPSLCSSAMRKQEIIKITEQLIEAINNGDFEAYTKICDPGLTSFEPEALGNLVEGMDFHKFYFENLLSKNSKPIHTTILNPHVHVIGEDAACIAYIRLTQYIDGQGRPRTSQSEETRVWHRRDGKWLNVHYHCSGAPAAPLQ

[6] = test system: Epidermal growth factor receptor (Homo sapiens), P00533 [UNDEFINED MUTATION]; conditions: Compound concentration 1000.0 nM
Epidermal growth factor receptor (Homo sapiens), P00533 [UNDEFINED MUTATION], sequence (P00533 whole entry, looked up, change not shown): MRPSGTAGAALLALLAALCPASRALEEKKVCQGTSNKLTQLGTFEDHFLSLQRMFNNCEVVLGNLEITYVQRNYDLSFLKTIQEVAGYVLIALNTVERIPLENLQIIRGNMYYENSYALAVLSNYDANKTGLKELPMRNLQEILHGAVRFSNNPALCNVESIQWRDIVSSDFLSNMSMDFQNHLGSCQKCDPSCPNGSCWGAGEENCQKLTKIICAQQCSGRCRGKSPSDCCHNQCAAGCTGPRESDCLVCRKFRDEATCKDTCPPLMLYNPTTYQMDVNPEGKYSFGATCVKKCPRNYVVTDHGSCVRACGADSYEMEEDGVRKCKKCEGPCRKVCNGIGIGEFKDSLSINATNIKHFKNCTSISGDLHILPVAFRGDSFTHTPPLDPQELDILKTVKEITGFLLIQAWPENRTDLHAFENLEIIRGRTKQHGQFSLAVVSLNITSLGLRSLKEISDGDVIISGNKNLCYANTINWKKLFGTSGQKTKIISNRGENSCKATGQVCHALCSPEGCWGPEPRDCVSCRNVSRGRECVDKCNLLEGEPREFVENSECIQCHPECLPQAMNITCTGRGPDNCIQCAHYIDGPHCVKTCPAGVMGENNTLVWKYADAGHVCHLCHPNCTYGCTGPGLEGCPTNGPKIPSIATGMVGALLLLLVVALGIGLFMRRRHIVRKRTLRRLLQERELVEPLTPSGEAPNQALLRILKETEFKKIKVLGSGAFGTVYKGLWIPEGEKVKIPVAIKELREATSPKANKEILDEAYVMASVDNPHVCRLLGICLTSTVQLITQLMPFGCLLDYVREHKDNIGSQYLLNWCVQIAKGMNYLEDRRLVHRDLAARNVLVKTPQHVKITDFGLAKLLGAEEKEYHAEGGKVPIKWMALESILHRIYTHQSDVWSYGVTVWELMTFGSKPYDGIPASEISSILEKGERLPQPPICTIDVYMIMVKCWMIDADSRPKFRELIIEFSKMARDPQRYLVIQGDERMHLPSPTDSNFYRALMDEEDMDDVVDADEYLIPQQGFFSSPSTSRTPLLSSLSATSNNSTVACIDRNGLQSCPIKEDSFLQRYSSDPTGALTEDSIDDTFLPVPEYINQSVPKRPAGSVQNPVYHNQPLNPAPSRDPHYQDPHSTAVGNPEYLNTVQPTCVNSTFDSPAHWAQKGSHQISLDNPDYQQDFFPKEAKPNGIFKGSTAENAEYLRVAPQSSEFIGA

[7] = target: Muscle, skeletal receptor tyrosine-protein kinase (Homo sapiens) (UniProt O15146); conditions: Compound concentration 1000.0 nM
[8] = target: TGF-beta receptor type-1 (Homo sapiens) (UniProt P36897); conditions: Compound concentration 1000.0 nM
TGF-beta receptor type-1 (Homo sapiens), sequence (P36897 whole entry): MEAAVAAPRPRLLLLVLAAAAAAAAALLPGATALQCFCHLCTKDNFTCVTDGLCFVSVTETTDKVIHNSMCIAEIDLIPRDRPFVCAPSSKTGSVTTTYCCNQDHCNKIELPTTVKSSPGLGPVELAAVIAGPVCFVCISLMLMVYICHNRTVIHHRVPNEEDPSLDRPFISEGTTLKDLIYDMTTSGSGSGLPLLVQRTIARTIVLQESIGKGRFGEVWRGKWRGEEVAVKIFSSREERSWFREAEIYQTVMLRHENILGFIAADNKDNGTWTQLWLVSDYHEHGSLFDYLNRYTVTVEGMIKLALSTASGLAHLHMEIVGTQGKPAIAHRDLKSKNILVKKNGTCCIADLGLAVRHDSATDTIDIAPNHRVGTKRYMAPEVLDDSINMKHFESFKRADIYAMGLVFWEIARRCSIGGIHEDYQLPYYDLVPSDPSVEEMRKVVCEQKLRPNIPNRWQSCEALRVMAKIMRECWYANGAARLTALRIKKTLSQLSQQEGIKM

[9] = target: Serine/threonine-protein kinase B-raf (Homo sapiens) (UniProt P15056); conditions: Compound concentration 1000.0 nM
[10] = test system: Mast/stem cell growth factor receptor Kit (Homo sapiens), P10721 [V559D,V654A]; conditions: Compound concentration 1000.0 nM
[11] = target: Vascular endothelial growth factor receptor 3 (Homo sapiens) (UniProt P35916); conditions: Compound concentration 1000.0 nM
[12] = target: Serine/threonine-protein kinase 32A (Homo sapiens) (UniProt Q8WU08); conditions: Compound concentration 1000.0 nM
[13] = target: Dual specificity mitogen-activated protein kinase kinase 4 (Homo sapiens) (UniProt P45985); conditions: Compound concentration 1000.0 nM
[14] = target: Ephrin type-B receptor 6 (Homo sapiens) (UniProt O15197); conditions: Compound concentration 1000.0 nM
Ephrin type-B receptor 6 (Homo sapiens), sequence (O15197 whole entry): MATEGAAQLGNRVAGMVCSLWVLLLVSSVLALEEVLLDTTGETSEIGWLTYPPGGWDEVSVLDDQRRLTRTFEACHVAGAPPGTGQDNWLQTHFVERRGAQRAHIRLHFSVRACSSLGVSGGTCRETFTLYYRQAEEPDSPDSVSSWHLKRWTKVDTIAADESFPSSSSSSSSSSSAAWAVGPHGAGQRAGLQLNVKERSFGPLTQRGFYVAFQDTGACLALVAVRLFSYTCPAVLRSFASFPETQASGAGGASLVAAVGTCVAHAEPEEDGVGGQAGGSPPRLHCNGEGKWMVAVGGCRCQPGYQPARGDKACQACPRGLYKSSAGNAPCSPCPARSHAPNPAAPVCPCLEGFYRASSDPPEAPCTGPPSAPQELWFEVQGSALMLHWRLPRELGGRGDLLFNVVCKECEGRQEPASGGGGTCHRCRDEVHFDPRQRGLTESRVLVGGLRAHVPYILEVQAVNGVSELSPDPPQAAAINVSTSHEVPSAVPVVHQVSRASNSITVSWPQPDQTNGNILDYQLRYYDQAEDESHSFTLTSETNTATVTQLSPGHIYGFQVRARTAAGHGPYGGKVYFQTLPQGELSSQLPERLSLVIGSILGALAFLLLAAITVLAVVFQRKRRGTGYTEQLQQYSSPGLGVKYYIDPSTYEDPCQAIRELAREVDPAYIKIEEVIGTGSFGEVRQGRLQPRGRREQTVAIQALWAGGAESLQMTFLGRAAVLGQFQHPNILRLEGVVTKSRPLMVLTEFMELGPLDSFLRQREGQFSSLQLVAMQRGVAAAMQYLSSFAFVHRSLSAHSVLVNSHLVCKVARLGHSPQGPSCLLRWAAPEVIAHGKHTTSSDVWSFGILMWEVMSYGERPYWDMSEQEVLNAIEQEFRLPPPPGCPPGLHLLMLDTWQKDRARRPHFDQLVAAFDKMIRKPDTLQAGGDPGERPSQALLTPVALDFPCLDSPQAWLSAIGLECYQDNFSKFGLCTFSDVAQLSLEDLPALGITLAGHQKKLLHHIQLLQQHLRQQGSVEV

[15] = target: Serine/threonine-protein kinase SBK1 (Homo sapiens) (UniProt Q52WX2); conditions: Compound concentration 1000.0 nM
Serine/threonine-protein kinase SBK1 (Homo sapiens), sequence (Q52WX2 whole entry): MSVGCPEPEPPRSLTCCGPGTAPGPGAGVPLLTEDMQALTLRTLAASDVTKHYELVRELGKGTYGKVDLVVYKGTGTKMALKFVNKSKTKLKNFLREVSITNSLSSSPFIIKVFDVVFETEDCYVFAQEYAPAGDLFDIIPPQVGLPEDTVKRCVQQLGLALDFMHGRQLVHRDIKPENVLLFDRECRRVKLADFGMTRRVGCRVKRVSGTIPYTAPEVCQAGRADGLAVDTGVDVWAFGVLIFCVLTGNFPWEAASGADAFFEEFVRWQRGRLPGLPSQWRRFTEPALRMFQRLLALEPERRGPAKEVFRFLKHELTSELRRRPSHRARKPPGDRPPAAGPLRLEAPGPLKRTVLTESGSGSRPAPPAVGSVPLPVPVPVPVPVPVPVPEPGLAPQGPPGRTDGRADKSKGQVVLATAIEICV

[16] = target: Activin receptor type-1 (Homo sapiens) (UniProt Q04771); conditions: Compound concentration 1000.0 nM
[17] = target: Proto-oncogene tyrosine-protein kinase Src (Homo sapiens) (UniProt P12931); conditions: Compound concentration 1000.0 nM
[18] = target: Ribosomal protein S6 kinase beta-1 (Homo sapiens) (UniProt P23443); conditions: Compound concentration 1000.0 nM
[19] = target: Phosphatidylinositol 5-phosphate 4-kinase type-2 gamma (Homo sapiens) (UniProt Q8TBX8); conditions: Compound concentration 1000.0 nM
[20] = target: Mitogen-activated protein kinase 4 (Homo sapiens) (UniProt P31152); conditions: Compound concentration 1000.0 nM
[21] = target: Serine/threonine-protein kinase RIO2 (Homo sapiens) (UniProt Q9BVS4); conditions: Compound concentration 1000.0 nM
[22] = target: TGF-beta receptor type-2 (Homo sapiens) (UniProt P37173); conditions: Compound concentration 1000.0 nM
[23] = target: Serine/threonine-protein kinase Sgk2 (Homo sapiens) (UniProt Q9HBY8); conditions: Compound concentration 1000.0 nM
Serine/threonine-protein kinase Sgk2 (Homo sapiens), sequence (Q9HBY8 whole entry): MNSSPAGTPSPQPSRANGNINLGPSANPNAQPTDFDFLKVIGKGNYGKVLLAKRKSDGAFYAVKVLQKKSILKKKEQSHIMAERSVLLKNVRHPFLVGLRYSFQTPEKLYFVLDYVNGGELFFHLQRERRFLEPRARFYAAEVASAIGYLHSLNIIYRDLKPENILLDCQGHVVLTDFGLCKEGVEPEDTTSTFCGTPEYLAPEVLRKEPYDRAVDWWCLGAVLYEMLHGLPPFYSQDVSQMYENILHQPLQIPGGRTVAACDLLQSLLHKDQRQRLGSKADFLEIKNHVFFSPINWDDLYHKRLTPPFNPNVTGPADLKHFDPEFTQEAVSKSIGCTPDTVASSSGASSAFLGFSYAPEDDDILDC

[24] = target: STE20-like serine/threonine-protein kinase (Homo sapiens) (UniProt Q9H2G2); conditions: Compound concentration 1000.0 nM
[25] = target: Mitogen-activated protein kinase kinase kinase 19 (Homo sapiens) (UniProt Q56UN5); conditions: Compound concentration 1000.0 nM
[26] = target: Atypical kinase COQ8B, mitochondrial (Homo sapiens) (UniProt Q96D53); conditions: Compound concentration 1000.0 nM
[27] = test system: Epidermal growth factor receptor (Homo sapiens), P00533 [UNDEFINED MUTATION]; conditions: Compound concentration 1000.0 nM; remark: listed apart in the source
[28] = target: RAF proto-oncogene serine/threonine-protein kinase (Homo sapiens) (UniProt P04049); conditions: Compound concentration 1000.0 nM
[29] = target: 5-hydroxytryptamine receptor 1D (Homo sapiens) (UniProt P28221); conditions: Compound concentration 10.0 uM
[30] = target: Tyrosine-protein kinase JAK1 (Homo sapiens) (UniProt P23458); conditions: Compound concentration 1000.0 nM
[31] = target: Cyclin-dependent kinase-like 3 (Homo sapiens) (UniProt Q8IVW4); conditions: Compound concentration 1000.0 nM
[32] = target: Cyclin-dependent kinase 11B (Homo sapiens) (UniProt P21127); conditions: Compound concentration 1000.0 nM
[33] = target: Calcium/calmodulin-dependent protein kinase type 1 (Homo sapiens) (UniProt Q14012); conditions: Compound concentration 1000.0 nM
[34] = target: Serine/threonine-protein kinase WNK3 (Homo sapiens) (UniProt Q9BYP7); conditions: Compound concentration 1000.0 nM
[35] = target: Mitogen-activated protein kinase kinase kinase 10 (Homo sapiens) (UniProt Q02779); conditions: Compound concentration 1000.0 nM
Mitogen-activated protein kinase kinase kinase 10 (Homo sapiens), sequence (Q02779 whole entry, looked up): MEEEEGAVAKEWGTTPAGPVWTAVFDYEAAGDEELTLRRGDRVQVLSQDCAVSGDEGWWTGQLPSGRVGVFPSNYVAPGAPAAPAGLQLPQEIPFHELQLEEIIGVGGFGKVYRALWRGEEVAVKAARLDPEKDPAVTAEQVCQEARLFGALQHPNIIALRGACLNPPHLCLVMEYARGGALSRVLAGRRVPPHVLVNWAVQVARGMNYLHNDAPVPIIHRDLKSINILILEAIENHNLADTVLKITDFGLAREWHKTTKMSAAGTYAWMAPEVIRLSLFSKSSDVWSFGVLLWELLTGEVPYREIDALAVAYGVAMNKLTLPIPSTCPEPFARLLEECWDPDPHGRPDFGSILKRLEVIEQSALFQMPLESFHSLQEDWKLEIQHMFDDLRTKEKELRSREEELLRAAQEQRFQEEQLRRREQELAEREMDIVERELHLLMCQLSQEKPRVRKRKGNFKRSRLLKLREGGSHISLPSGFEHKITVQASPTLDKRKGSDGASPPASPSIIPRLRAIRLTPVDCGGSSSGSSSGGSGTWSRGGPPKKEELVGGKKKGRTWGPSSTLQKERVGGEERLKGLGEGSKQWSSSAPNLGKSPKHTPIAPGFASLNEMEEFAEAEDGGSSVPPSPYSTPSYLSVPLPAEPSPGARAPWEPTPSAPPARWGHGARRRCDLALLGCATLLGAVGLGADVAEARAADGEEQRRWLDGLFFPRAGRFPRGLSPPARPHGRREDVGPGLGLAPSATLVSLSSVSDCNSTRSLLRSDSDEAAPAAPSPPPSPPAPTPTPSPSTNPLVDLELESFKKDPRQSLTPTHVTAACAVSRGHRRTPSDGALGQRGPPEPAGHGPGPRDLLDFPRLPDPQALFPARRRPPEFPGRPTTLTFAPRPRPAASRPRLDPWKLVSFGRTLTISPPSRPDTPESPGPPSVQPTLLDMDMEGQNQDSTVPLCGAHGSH

[36] = target: Protein kinase C iota type (Homo sapiens) (UniProt P41743); conditions: Compound concentration 1000.0 nM
[37] = test system: Phosphatidylinositol 4,5-bisphosphate 3-kinase catalytic subunit alpha isoform (Homo sapiens), P42336 [C420R]; conditions: Compound concentration 1000.0 nM
[38] = target: Platelet-derived growth factor receptor beta (Homo sapiens) (UniProt P09619); conditions: Compound concentration 1000.0 nM
[39] = target: Non-receptor tyrosine-protein kinase TYK2 (Homo sapiens) (UniProt P29597); conditions: Compound concentration 1000.0 nM
[40] = target: Tyrosine-protein kinase receptor Tie-1 (Homo sapiens) (UniProt P35590); conditions: Compound concentration 1000.0 nM
[41] = target: Serine/threonine-protein kinase MAK (Homo sapiens) (UniProt P20794); conditions: Compound concentration 1000.0 nM
[42] = target: Myosin-IIIb (Homo sapiens) (UniProt Q8WXR4); conditions: Compound concentration 1000.0 nM
[43] = target: Serine/threonine-protein kinase 32C (Homo sapiens) (UniProt Q86UX6); conditions: Compound concentration 1000.0 nM
[44] = target: cGMP-dependent protein kinase 1 (Homo sapiens) (UniProt Q13976); conditions: Compound concentration 1000.0 nM
[45] = target: Serine/threonine-protein kinase PLK4 (Homo sapiens) (UniProt O00444); conditions: Compound concentration 1000.0 nM

CCC(=O)N[C@H]1CC[C@@H](C(=O)N(C)c2ccc(-c3nc4ccccc4o3)cc2)C1 [BI 99179]
inactive: residual activity [1] 83% | residual activity [2] 100% | residual activity [3] 88% | residual activity [4] 67% | residual activity [5] 95% | residual activity [6] 79% | residual activity [7] 100% | residual activity [8] 100% | residual activity [9] 100% | residual activity [10] 89% | residual activity [11] 97% | residual activity [12] 98% | residual activity [13] 95% | residual activity [14] 100% | residual activity [15] 94% | residual activity [16] 85% | residual activity [17] 93% | residual activity [18] 99% | residual activity [19] 100% | residual activity [20] 100% | residual activity [21] 84% | residual activity [22] 89% | residual activity [23] 93% | residual activity [24] 92% | residual activity [25] 69% | residual activity [26] 74% | residual activity [27] 78% | residual activity [28] 100% | inhibition [29] 6.85% | residual activity [30] 77% | residual activity [31] 100% | residual activity [32] 99% | residual activity [33] 95% | residual activity [34] 92% | residual activity [35] 91% | residual activity [36] 92% | residual activity [37] 92% | residual activity [38] 89% | residual activity [39] 95% | residual activity [40] 100% | residual activity [41] 85% | residual activity [42] 98% | residual activity [43] 94% | residual activity [44] 100% | residual activity [45] 78%

CCC(=O)N[C@@H]1CC[C@H](C(=O)N(C)c2ccc(-c3nc4ccccc4o3)cc2)C1 [BI 99990]
inactive: residual activity [1] 90% | residual activity [2] 100% | residual activity [3] 100% | residual activity [4] 69% | residual activity [5] 100% | residual activity [6] 75% | residual activity [7] 100% | residual activity [8] 95% | residual activity [9] 96% | residual activity [10] 100% | residual activity [11] 100% | residual activity [12] 100% | residual activity [13] 100% | residual activity [14] 100% | residual activity [15] 100% | residual activity [16] 94% | residual activity [17] 100% | residual activity [18] 93% | residual activity [19] 100% | residual activity [20] 100% | residual activity [21] 100% | residual activity [22] 100% | residual activity [23] 100% | residual activity [24] 100% | residual activity [25] 92% | residual activity [26] 94% | residual activity [27] 62% | residual activity [28] 94% | inhibition [29] -8.27% | residual activity [30] 88% | residual activity [31] 79% | residual activity [32] 100% | residual activity [33] 100% | residual activity [34] 100% | residual activity [35] 78% | residual activity [36] 84% | residual activity [37] 70% | residual activity [38] 98% | residual activity [39] 100% | residual activity [40] 95% | residual activity [41] 100% | residual activity [42] 100% | residual activity [43] 73% | residual activity [44] 100% | residual activity [45] 100%

Reference: ChEMBL document CHEMBL4507280 (2021)
